Literature values as cited in US20090221604A1, “Thiazole Compounds and Their Use as PGD2 Antagonists” (priority 2005, published 2009).

Experiments:
guinea pig = details: after oral dosing
[1] = tested on: asthma model in the guinea pig
[2] = tested on: allergic conjunctivitis model

Compound: CC1(C)[C@H]2C[C@H](C/C=C\CCCC(=O)O)[C@@H](NC(=O)c3csc4ccc(O)cc34)[C@@H]1C2 [Example S-5751]
- early (sneezing, mucosal plasma exudation, nasal blockage) and late (eosinophil infiltration) phase nasal responses (guinea pig): inhibited
- antigen-induced eosinophil infiltration into the lung [1]: alleviated
- allergen-induced plasma exudation in the conjunctiva [2]: alleviated
